# According to paper PMC9898036, “VIP152 is a selective CDK9 inhibitor with pre-clinical in vitro and in vivo efficacy in chronic lymphocytic leukemia” (Leukemia, 2022):
# Tests used:
# CSF1R-autoinhibited = CSF1R-autoinhibited (Homo sapiens, UniProt P07333); assay: KINOMEscan: CSF1R-autoinhibited; format: binding; conditions: 1000 nM, read-out: Percent Control
# BIKE = BIKE (Homo sapiens, UniProt Q9NSY1); assay: KINOMEscan: BIKE; format: binding; conditions: 1000 nM, read-out: Percent Control
# YSK1 = YSK1 (Homo sapiens, UniProt O00506); assay: KINOMEscan: YSK1; format: binding; conditions: 100 nM, read-out: Percent Control
# GSK3α = GSK3α (Homo sapiens, UniProt P49840); assay: KINOMEscan: GSK3α; format: binding
# Sequence of GSK3α (P49840 whole entry): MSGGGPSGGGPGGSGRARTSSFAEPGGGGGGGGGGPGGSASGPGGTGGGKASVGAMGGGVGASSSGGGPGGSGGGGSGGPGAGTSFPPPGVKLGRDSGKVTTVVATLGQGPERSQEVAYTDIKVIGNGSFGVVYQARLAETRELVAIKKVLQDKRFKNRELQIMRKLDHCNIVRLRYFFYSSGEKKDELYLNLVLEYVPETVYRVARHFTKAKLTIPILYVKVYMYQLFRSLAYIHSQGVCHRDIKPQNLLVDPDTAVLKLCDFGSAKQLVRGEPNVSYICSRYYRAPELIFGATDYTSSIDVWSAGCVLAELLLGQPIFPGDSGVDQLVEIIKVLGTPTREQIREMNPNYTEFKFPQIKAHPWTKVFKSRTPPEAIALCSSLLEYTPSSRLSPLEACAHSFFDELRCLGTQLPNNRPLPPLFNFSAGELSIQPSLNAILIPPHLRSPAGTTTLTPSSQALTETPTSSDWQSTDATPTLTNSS
# Method: The structure and synthesis of VIP152 were recently described by Lücking et al.. (Fig. 1A); however, the selectivity of the molecule in cellular systems has yet to be explored. […] We also performed this experiment at 1000 nM, where CDK9 was inhibited at 99%. […] We found a strong concordance between our data and those of Lücking when comparing the most inhibited kinases. Potential off-target effects of VIP152 were next tested in vitro at a concentration of 10 µM for off-target activity against a broad range of receptors, transporters, ion channels, and enzymes (n = 138) using the Eurofins Diversity Panel.
# Kinomescan Kinase Profiling Assay
# Kinomescan Assay was performed at DiscoverRX and described in Fabian, et al. 2005, Nat.
# Biotechnol. In brief, kinases were produced and subsequently tagged with DNA for qPCR detection.
# Streptavidin-coated magnetic beads were bound to biotinylated kinase ligands to serve as a solid support.
# VIP152 was dissolved in DMSO and tested across a 10 serial threefold dilution set and compared to a test compound and a DMSO control. Kinases which were inhibited by VIP152 would not be bound to the solid-support resulting in decreased substrate for the qPCR reaction. Kinome map was produced via TreeSpot Analysis from DiscoverRX. […]
# NanoBRETTM Target Engagement Assay Protocol […]
# HEK293 cells were grown to 70-80% confluence appropriately prior to assay and subsequently trypsinized. Lipid:DNA complexes were prepared as follows. A 10µg/mL solution of DNA in Opti-MEM without serum consisting of the following ratios of carrier DNA and DNA encoding NanoLuc fusion were prepared.
# 9.0µg/mL of Transfection Carrier DNA, 1.0µg/mL of NanoLuc fusion vector DNA, and 1mL of Opti-MEM without phenol red. The solution was mixed thoroughly. Next, 30µL of FuGENE HD Transfection Reagent was added into each mL of DNA mixture to form the lipid:DNA complex and mixed by inversion 10 times followed by a 20 minute incubation at room temperature. […]
# [1] = target: Serotonin (5-Hydroxytryptamine) 5-HT1A) (Homo sapiens, UniProt P08908); assay: Eurofins Diversity Panel; format: binding; conditions: hum, Conc. 10 μM
# [2] = target: CDK9 in complex with Cyclin T1 (Homo sapiens, UniProt P50750); assay: HotSpot radiometric kinase assay; format: biochemical; design: purchased ReactionBio
# Sequence of CDK9 in complex with Cyclin T1 (P50750 whole entry): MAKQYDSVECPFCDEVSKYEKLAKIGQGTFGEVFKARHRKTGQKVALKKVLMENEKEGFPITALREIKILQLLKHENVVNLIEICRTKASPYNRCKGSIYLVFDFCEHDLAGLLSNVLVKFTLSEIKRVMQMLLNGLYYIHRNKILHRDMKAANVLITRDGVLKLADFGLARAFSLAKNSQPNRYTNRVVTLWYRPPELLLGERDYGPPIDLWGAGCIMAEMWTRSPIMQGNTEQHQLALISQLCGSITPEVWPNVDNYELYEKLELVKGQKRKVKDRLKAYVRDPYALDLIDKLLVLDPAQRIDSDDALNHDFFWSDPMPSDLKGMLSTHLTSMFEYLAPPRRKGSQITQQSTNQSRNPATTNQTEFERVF
# Sequence of CDK9 in complex with Cyclin T1 (O60563 whole entry partner): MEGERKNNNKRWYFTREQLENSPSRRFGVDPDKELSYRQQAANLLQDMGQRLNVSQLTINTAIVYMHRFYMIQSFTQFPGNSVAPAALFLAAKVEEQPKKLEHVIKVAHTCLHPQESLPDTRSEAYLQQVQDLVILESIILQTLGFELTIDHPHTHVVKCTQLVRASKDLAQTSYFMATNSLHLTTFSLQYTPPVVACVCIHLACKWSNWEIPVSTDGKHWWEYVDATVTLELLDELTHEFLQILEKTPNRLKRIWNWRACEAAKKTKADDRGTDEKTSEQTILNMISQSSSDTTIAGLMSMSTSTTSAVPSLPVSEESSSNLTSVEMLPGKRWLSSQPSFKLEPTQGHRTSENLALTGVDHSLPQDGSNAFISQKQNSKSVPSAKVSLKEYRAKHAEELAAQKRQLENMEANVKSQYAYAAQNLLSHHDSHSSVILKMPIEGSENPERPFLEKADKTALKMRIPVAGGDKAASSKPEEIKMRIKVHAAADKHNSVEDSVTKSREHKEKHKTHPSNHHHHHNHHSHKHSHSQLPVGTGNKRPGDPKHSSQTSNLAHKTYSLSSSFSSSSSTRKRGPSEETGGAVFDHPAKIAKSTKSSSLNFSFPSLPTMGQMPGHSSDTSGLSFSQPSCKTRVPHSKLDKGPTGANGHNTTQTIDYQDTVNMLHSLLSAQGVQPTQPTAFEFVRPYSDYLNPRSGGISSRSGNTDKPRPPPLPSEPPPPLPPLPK
# Method: (§1) We next compared VIP152 to other CDK inhibitors currently in development. […] The compounds were tested in a 10-dose series from 0.5 nM to 10 µM against CDK9 in complex with Cyclin T1/T2/K, CDK7/Cyclin H, and GSK3α/β. […]
# (§2) HotSpot Kinase Assay Protocol
# (§3) Compounds tested via HotSpot Kinase Assay were sent to ReactionBio for the experiment. The […]
# (§4) Kinase substrate was added to reaction buffer (20 mM Hepes (pH 7.5), 10 mM MgCl2, 1 mM EGTA, 0.01% Brij35, 0.02 mg/ml BSA, 0.1 mM Na3VO4, 2 mM DTT, 1% DMSO). Cofactors and kinases were gently added to the reaction buffer. Compounds to be tested were dissolved in 100% DMSO and were delivered into the kinase reaction mixture by Acoustic technology (Echo550; nanoliter range) and incubated for 20 min at room temperature. 32P-ATP was delivered into the reaction mixture and the reaction was allowed to proceed for 2 hours. Kinase activity was detected by P81 filter-binding method.
# [3] = target: CDK9 in complex with Cyclin T2 (Homo sapiens, UniProt P50750); assay: HotSpot radiometric kinase assay; format: biochemical; design: purchased ReactionBio; conditions: 10-dose series from 0.5 nM to 10 µM; vs dinaciclib, KB-0742, atuveciclib
# Sequence of CDK9 in complex with Cyclin T2 (P50750 whole entry): as the sequence (P50750 whole entry) above
# Sequence of CDK9 in complex with Cyclin T2 (O60583 whole entry partner): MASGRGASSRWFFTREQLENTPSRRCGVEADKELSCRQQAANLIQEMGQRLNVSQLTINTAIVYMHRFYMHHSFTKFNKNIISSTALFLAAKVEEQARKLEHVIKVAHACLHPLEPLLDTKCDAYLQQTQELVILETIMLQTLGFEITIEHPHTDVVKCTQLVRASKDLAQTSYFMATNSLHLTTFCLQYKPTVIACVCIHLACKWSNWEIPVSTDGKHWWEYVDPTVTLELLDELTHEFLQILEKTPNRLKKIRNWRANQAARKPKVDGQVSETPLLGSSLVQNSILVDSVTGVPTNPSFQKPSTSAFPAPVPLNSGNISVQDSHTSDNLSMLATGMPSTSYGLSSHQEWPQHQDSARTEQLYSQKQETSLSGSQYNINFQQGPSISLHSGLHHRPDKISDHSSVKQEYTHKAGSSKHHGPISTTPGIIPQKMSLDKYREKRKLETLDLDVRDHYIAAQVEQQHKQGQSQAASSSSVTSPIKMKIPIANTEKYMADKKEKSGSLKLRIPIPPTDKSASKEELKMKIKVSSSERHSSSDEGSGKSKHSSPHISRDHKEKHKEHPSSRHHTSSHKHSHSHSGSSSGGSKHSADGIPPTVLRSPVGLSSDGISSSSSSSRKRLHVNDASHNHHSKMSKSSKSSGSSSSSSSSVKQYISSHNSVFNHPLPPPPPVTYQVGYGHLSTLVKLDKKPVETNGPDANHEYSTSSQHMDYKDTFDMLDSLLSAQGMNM
# Method: as §1, §2, §3, §4
# GSK3β = GSK3β (Homo sapiens, UniProt P49841); assay: HotSpot radiometric kinase assay; format: biochemical; design: purchased ReactionBio; conditions: 10-dose series from 0.5 nM to 10 µM; vs dinaciclib, KB-0742, atuveciclib
# Sequence of GSK3β (P49841 whole entry): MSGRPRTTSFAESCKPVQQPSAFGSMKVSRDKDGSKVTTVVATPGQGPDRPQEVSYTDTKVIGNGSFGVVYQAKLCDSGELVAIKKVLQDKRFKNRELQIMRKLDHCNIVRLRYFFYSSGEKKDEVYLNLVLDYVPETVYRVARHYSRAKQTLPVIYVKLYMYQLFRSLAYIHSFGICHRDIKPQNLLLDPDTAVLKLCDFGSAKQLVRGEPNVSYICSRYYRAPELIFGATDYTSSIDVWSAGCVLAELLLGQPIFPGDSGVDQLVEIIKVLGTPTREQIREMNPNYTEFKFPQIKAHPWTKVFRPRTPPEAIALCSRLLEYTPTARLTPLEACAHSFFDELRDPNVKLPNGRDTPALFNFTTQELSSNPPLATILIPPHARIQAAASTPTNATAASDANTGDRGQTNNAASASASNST
# Method: as §1, §2, §3, §4
# [4] = test system: relapsed/refractory primary CLL samples; assay: Annexin V/propidium iodide flow cytometry; format: cell-based; conditions: Homo sapiens; 8 BTKi/venetoclax relapsed/refractory samples; 24 h; read-out: IC50 (50% killing)
# MAP4K4 = MAP4K4 (Homo sapiens, UniProt O95819); assay: KINOMEscan: MAP4K4; format: binding; conditions: 1000 nM, read-out: Percent Control
# CAMK2D = CAMK2D (Homo sapiens, UniProt Q13557); assay: KINOMEscan: CAMK2D; format: binding; conditions: 1000 nM, read-out: Percent Control
# Sequence of CAMK2D (Q13557 whole entry): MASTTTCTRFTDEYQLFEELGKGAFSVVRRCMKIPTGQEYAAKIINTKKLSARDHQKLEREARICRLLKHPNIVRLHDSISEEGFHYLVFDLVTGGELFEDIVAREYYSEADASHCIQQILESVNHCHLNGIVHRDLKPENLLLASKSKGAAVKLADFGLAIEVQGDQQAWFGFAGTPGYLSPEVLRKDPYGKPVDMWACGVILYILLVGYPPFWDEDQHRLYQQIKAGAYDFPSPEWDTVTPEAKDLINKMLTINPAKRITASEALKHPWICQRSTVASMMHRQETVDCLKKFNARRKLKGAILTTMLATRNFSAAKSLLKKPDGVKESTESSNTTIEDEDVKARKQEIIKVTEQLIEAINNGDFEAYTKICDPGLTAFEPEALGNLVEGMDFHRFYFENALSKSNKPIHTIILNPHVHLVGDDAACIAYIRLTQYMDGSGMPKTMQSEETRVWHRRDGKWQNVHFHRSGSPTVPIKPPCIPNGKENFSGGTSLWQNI
# [5] = test system: TP53 R175H and R248Q mutated HG-3 cell lines; assay: Annexin V/propidium iodide flow cytometry; format: cell-based, human; conditions: 24, 48, and 72 h
# YANK2 = YANK2 (Homo sapiens, UniProt Q9NY57); assay: KINOMEscan: YANK2; format: binding; conditions: 100 nM, read-out: Percent Control
# Sequence of YANK2 (Q9NY57 whole entry): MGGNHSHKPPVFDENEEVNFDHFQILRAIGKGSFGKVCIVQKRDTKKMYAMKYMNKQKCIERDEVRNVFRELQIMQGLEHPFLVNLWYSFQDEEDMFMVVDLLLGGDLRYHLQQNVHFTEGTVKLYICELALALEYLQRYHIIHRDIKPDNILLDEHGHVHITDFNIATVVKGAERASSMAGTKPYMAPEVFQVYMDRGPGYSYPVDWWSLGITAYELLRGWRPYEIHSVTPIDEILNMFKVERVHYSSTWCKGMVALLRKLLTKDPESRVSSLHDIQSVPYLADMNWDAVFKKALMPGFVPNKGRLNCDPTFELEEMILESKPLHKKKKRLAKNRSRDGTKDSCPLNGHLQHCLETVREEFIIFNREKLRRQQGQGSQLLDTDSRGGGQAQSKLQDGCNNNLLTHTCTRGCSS
# TEC = TEC (Homo sapiens, UniProt P42680); assay: KINOMEscan: TEC; format: binding; conditions: 100 nM, read-out: Percent Control
# MAP4K3 = MAP4K3 (Homo sapiens, UniProt Q8IVH8); assay: KINOMEscan: MAP4K3; format: binding; conditions: 1000 nM, read-out: Percent Control
# Sequence of MAP4K3 (Q8IVH8 whole entry): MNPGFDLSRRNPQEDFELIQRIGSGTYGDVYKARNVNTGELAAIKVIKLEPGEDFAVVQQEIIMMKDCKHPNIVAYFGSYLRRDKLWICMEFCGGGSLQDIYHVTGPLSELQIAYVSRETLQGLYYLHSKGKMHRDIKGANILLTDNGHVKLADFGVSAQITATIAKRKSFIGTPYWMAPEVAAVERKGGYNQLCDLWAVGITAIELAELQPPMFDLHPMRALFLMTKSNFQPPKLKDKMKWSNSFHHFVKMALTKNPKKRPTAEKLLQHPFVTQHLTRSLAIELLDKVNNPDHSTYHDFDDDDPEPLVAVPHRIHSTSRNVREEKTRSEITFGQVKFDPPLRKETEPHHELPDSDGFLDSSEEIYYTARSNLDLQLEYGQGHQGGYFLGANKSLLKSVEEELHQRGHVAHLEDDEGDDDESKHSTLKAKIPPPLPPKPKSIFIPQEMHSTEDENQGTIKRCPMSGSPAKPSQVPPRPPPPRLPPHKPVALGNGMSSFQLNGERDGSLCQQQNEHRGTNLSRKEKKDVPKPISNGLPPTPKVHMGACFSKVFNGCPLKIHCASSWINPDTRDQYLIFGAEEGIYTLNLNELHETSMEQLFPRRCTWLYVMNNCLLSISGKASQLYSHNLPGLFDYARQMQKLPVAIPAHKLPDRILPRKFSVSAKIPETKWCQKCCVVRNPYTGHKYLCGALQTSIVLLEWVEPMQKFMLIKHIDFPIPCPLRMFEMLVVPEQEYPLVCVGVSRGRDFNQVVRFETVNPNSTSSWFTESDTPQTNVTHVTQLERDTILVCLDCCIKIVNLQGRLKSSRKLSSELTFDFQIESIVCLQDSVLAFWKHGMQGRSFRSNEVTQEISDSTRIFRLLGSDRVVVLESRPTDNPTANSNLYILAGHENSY
# DYRK1B = DYRK1B (Homo sapiens, UniProt Q9Y463); assay: KINOMEscan: DYRK1B; format: binding; conditions: 1000 nM, read-out: Percent Control
# IKK-beta = IKK-beta (Homo sapiens, UniProt O14920); assay: KINOMEscan: IKK-beta; format: binding; conditions: 1000 nM, read-out: Percent Control
# IRAK3 = IRAK3 (Homo sapiens, UniProt Q9Y616); assay: KINOMEscan: IRAK3; format: binding; conditions: 1000 nM, read-out: Percent Control
# Sequence of CSF1R-autoinhibited (P07333 539-972 limits assumed): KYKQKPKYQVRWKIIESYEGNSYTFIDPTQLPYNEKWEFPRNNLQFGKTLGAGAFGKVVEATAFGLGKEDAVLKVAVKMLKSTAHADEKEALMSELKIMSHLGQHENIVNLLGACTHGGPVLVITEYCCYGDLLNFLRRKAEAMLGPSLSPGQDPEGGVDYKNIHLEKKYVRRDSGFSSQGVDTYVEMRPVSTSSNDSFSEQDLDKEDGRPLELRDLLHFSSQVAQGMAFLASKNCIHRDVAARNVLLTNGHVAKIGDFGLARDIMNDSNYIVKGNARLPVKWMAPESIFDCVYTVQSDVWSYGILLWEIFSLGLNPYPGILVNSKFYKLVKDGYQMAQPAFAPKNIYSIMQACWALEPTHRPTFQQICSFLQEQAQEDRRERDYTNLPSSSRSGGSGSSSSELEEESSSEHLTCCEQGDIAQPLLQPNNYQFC
compound,measurement,setting,value
COc1cc(F)ccc1-c1cc(Nc2cc(CS(C)(=N)=O)ccn2)ncc1F (stereo not drawn) [VIP152],remaining binding at 1 µM,CSF1R-autoinhibited,73%
same,remaining binding at 1 µM,BIKE,38%
same,remaining binding at 0.1 µM,YSK1,100%
same,inhibition at 0.1 µM,"GSK3α; 100 nM, read-out: inhibition of GSK3α relative to control",97.1%
same,remaining binding at 0.1 µM,"GSK3α; GSK3A, 100 nM, read-out: Percent Control",2.9%
same,remaining binding at 1 µM,"GSK3α; GSK3A, 1000 nM, read-out: Percent Control",4.5%
same,inhibition at 10 µM,[1],13%
same,potency versus the other inhibitors tested,"[2]; 10-dose series from 0.5 nM to 10 µM, vs dinaciclib, KB-0742, atuveciclib",higher potency
same,increase in potency compared with other inhibitors currently in development,[2]; CDK9,> 10 fold
same,potency versus the other inhibitors tested,[3],higher potency
same,potency versus the other inhibitors tested,GSK3β,higher potency
same,IC50,[4],~1000 nM
same,remaining binding at 1 µM,MAP4K4,44%
same,remaining binding at 1 µM,CAMK2D,69%
same,cytotoxicity,[5],significant levels of cytotoxicity
same,remaining binding at 0.1 µM,YANK2,71%
same,remaining binding at 0.1 µM,TEC,100%
same,remaining binding at 1 µM,MAP4K3,57%
same,remaining binding at 1 µM,DYRK1B,20%
same,remaining binding at 1 µM,IKK-beta,100%
same,remaining binding at 1 µM,IRAK3,52%
